Results from publication PMC6582431 (Chemmedchem, 2018).

Key:
carboxylesterases (CEs) = test: CE activity in rat liver microsomes; assay type: biochemical; settings: 10 μM in rat liver microsomes; Table 5
FAAH [1] = biological target: T1, FAAH (Mus musculus, UniProt O08914); test: In vivo FAAH inhibition, liver, after oral administration to mice
T1 sequence (O08914 1-579): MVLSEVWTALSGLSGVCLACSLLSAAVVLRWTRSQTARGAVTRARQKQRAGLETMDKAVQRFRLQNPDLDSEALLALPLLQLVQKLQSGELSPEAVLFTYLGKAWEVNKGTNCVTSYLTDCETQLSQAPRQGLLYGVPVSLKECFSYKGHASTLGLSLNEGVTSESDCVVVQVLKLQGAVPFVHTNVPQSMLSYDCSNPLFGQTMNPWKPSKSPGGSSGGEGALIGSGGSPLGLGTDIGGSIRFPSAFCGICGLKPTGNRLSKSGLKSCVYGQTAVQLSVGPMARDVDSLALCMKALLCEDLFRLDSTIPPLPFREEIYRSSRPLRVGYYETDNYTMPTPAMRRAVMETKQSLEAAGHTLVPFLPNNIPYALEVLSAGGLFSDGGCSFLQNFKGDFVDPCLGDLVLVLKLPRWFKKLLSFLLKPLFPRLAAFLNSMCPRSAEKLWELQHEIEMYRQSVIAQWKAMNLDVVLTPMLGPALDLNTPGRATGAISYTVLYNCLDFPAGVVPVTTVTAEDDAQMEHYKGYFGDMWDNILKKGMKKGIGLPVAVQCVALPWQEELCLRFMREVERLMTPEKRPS

[2] = CYP450 metabolic stability, human liver microsomes; assay type: in vitro ADME; settings: 5 μM in liver microsomes, 1 h incubation
FAAH [3] = biological target: T2, FAAH (Rattus norvegicus, UniProt P97612); test: In vitro FAAH activity in rat brain homogenates/membranes; assay type: biochemical; settings: 100 nM; rat brain homogenates, 15 min pre-incubation; Table 5
T2 sequence (P97612 1-579): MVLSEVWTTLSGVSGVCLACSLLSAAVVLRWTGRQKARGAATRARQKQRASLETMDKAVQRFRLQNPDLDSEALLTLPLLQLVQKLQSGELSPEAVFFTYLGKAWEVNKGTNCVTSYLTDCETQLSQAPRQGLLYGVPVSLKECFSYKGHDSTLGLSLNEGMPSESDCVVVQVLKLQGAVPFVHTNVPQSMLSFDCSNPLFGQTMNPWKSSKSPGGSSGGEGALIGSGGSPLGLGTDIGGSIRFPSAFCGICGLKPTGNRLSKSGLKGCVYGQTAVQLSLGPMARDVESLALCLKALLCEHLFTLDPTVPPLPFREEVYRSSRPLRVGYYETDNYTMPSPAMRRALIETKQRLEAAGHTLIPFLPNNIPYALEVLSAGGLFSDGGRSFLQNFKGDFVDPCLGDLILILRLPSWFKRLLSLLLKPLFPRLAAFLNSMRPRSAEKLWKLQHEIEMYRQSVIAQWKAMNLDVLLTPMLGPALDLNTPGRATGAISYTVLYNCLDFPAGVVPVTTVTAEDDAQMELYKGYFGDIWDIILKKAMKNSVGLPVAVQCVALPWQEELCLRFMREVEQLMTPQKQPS

MAGL = biological target: T3, MAGL (Rattus norvegicus, UniProt Q8R431); test: MAGL activity in rat cerebellum cytosol; assay type: biochemical; settings: C inhib=100 μM in rat cerebellum cytosol; Table 5
T3 sequence (Q8R431 1-303): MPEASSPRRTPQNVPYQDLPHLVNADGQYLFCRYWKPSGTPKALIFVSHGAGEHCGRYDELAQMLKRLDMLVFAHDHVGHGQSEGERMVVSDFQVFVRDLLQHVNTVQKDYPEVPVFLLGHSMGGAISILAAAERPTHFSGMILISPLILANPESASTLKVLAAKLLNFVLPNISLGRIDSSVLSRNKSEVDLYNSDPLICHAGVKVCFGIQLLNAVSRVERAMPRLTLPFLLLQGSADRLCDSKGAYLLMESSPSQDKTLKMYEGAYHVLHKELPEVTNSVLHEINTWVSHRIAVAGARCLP

[4] = CYP450 metabolic stability, mouse liver microsomes; assay type: in vitro ADME; settings: 5 μM in liver microsomes, 1 h incubation
[5] = multiple ascending doses up to 20 mg; cited from earlier work
[6] = CYP450 metabolic stability, rat liver microsomes; assay type: in vitro ADME; settings: 5 μM in liver microsomes, 1 h incubation
[7] = CYP450 metabolic stability, primate liver microsomes; assay type: in vitro ADME; settings: 5 μM in liver microsomes, 1 h incubation
[8] = CYP450 metabolic stability, dog liver microsomes; assay type: in vitro ADME; settings: 5 μM in liver microsomes, 1 h incubation
FAAH [9] = biological target: T1, FAAH; test: In vivo FAAH inhibition, brain, after oral administration to mice
[10] = 0.1 mg kg^−1, mouse, p.o., text b31
[11] = 0.1 mg kg^−1 p.o. in mice, 8 h after administration, Table 5
[12] = 0.1 mg kg^−1 p.o., mice, post-dose

in vivo FAAH inhibitory activity, liver (FAAH [1]; [10]): > 90 % of control
Liver FAAH activity, percent of control (FAAH [1]; [11]): 6±2% of control
time of maximum inhibitory effect in the liver (FAAH [1]; [12]): 1 h
ED50 (FAAH [1]; mouse, po, 8 h, read-out: ED50 liver FAAH): 7 µg/kg
inhibition at 0.1 mg/kg (FAAH [1]; mouse, po, read-out: peripheral inhibition of FAAH sustained over the next 7 h): > 90%
CYP450 metabolic stability, Human, percent of remaining [2]: 95±1% of remaining
FAAH activity, percent of control, 100 nM (FAAH [3]): 85±11% of control
MAGL (100 μM), percent of control (MAGL): 96±4% of control
CYP450 metabolic stability, Mouse, percent of remaining [4]: 99±2% of remaining
CYP450 metabolic stability, Rat, percent of remaining [6]: 91±1% of remaining
CYP450 metabolic stability, Primate, percent of remaining [7]: 88±1% of remaining
CYP450 metabolic stability, Dog, percent of remaining [8]: 94±2% of remaining
in vivo FAAH inhibitory activity, brain (FAAH [9]; [10]): > 90 % of control
Brain FAAH activity, percent of control (FAAH [9]; [11]): 8±2% of control
maximal inhibitory effect in the brain (FAAH [9]; 0.1 mg kg^−1 p.o., mice, at 8 h post-dose): > 90%
time of maximal inhibitory effect in the brain (t max) (FAAH [9]; [12]): 8 h
central FAAH inhibition maintained up to 48 h post-administration (FAAH [9]; 0.1 mg kg^−1 p.o., mice, up to 48 h): > 50%
ED50 cerebral FAAH (FAAH [9]; mice, p.o., 0.001 to 3 mg kg^−1, 8 h post-administration): ~27 µg/kg
SMILES: CN(C(=O)n1cnc(-c2ccc[n+]([O-])c2)c1)C1CCCCC1 [Compound 8 l, 3‐(1‐(Cyclohexyl(methyl)carbamoyl)‐1H‐imidazol‐4‐yl)pyridine 1‐oxide]
CEs (10 μM), percent of control (carboxylesterases (CEs)): 102±5% of control
systemic exposure to anandamide [5]: increased in a dose‐dependent manner
